The record followed here is paper PMC5749684, “Tetrahydrocarbazoles are a novel class of potent P-type ATPase inhibitors with antifungal activity” (PLoS ONE, 2018).

Test [1] concerns Candida glabrata ATCC 90030. Description: Fungal growth inhibition, C. glabrata ATCC 90030. It is filed as cell-based. Particulars: Nakaseomyces glabratus, ATCC90030; MIC defined as 50% growth inhibition, 24 h, n = 3–6. An excerpt:
(§1) Fungal isolates were purchased from American Type Culture Collection, except for C. glabrata strain Cg003, which was kindly provided by Julius Subik, Comenius University in Bratislava, Slovak Republic. Cg003 is a clinical isolate, characterized to be resistant to fluconazole and itraconazole due to overexpression of the multidrug resistance efflux pumps Cdr1p and Cdr2p. Saccharomyces cerevisiae (ATCC 9763), Candida albicans (ATCC 90028), Candida albicans (SC5314), Candida glabrata (ATCC 90030), Candida glabrata (Cg003) and Candida krusei (ATCC 6258) were grown in Sabouraud broth (40 g/L D-glucose, 10 g/L peptone, pH 5.6) or YPD (10 g/L yeast extract, 20 g/L Bacto-peptone, 20 g/L glucose) medium to mid log phase, aliquoted into 20% (v/v) glycerol and cryopreserved as stocks at -80°C. For each growth assay, cells from these stocks were diluted in sterile water to OD600 = 0.025, which corresponds to a final starting inoculum of 0.5–2.5 x 10^5 CFU/mL. Growth assays were carried out by pipetting 3 μL compound dissolved in DMSO, 100 μL cell suspension and 97 μL 2 x RPMI media (20.8 g/L RPMI-1640 (Sigma-Aldrich catalog number R6504) 330 mM MOPS, 36 g/L glucose) into a microtiter plate and incubating for 24 h at 34°C, followed by OD measurement at 490 nm. The minimum inhibitory concentration (MIC) was defined as 50% growth inhibition of the microorganism as this measurement best represented the antifungal activity of the compounds. Standard errors were typically below 5%.

In a further test the test system is HepG2 cells. Kind of test: Hep G2 viability assay (XTT). Type of test: cell-based, human. The conditions noted are these: for EC50: Homo sapiens, HepG2 proliferation, 72 h, XTT; for Fungal growth inhibition versus HepG2 proliferation (in words): comparison of MIC and HepG2 EC50. The protocol: In each well of a 96 well tissue culture plate (Greiner, catalog number GR-655180) 10,000 human hepatocyte HepG2 cells (Sigma-Aldrich, catalog number 85011430) were plated in 200 μL growth media (EMEM (Sigma-Aldrich, catalog number M2279), 2 mM L-Glutamine (Biological Industries, catalog number 03-020-1B), 1% non-essential amino acids (Biosera, catalog number XC-E1154/100), 10% fetal bovine serum (Biological Industries, catalog number BI-04-007-1A)), and incubated overnight at 37°C and 5% CO2. The following day, fresh growth media plus 2 μL compound in DMSO was added. The plate was incubated for a further 72 h at 37°C and 5% CO2. The media was replaced with 100 μL freshly prepared 0.5 mg/mL XTT sodium salt solution (Sigma-Aldrich, catalog number X4251) in RPMI-1640 (Sigma-Aldrich, catalog number R7509) with 3.83 μg/mL phenazine methosulfate (Sigma-Aldrich, catalog number P9625) and incubated 2–3 h at 37°C and 5% CO2. The color reaction was measured on a Victor X5 plate reader (Perkin-Elmer) at OD450, and the half maximal effective concentration (EC50) was calculated indicating the potency of tetrahydrocarbazole derivatives to inhibit HepG2 cell growth. Tamoxifen (Sigma-Aldrich, catalog number 85256) was used as a positive control compound while DMSO served as a negative control.

Another test has as its system Candida albicans SC5314. Description: Fungal growth inhibition, C. albicans SC5314. It is filed as cell-based. The conditions noted are these: MIC defined as 50% growth inhibition, 24 h, n = 3–6.
Description: as §1

The target of test [2] is T1, Saccharomyces cerevisiae Pma1 (Saccharomyces cerevisiae, UniProt P05030).
T1 construct: containing the full-length cDNA of the S. cerevisiae plasma membrane H^+-ATPase isoform PMA1; made in house; host or cells: Saccharomyces cerevisiae RS72
T1 sequence (P05030 whole entry, canonical isoform): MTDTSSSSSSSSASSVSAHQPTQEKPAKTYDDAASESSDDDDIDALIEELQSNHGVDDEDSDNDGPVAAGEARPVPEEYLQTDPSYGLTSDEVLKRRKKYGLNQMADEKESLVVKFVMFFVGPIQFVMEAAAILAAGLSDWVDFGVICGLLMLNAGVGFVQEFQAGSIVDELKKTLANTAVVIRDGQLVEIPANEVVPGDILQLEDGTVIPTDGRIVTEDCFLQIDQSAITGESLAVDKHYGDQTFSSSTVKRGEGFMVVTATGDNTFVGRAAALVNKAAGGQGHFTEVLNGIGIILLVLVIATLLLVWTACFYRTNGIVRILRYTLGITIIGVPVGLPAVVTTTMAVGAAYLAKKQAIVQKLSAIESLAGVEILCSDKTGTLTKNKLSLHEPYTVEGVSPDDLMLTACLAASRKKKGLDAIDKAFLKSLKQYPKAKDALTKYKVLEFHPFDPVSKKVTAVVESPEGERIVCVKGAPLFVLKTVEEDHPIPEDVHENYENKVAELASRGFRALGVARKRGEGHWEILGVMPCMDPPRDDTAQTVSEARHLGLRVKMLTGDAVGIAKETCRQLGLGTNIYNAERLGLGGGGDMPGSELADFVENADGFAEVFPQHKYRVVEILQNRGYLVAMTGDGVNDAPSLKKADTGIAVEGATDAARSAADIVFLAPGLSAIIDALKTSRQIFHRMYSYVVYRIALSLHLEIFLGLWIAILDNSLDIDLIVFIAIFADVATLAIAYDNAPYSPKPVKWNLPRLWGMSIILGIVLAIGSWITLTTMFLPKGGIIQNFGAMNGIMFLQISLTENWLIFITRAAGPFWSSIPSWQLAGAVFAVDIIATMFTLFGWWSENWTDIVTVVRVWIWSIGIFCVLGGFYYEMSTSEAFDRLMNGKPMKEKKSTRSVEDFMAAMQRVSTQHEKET
Description: ATP hydrolysis inhibition, S. cerevisiae Pma1. Type of test: biochemical. Particulars: for Pma1 inhibition (in words): Pma1 species not specified; for Selectivity among P-type ATPases (in words): Pma1 versus SERCA and Na+,K+-ATPase. The protocol:
The compound libraries were purchased from Enamine Ltd, Ukraine and Chembridge Corp, USA. Library screening was performed in 96 well plates format and each compound was screened in the ATP hydrolysis assay at a final concentration of 20 μM. DMSO was used to determine the maximal ATPase activity and a blank with ATP in absence of Pma1 protein was used to determine the level of spontaneous ATP hydrolysis and used to determine background level. The percentage of compound inhibition was evaluated by subtracting the blank from each data point and normalizing to maximal ATP hydrolysis activity. […] Pma1 inhibitory hit compounds (IC50 <20 μM) with antifungal activity on both S. cerevisiae and C. albicans (MIC <100 μM) were re-purchased and re-evaluated to confirm the potency and identity of the compound.
Plasma membranes containing Pma1 were isolated from Saccharomyces cerevisiae RS72 cells containing the full-length cDNA of the S. cerevisiae plasma membrane H^+-ATPase isoform PMA1 under control of the PMA1 promoter as described.
ATPase activity was determined by measuring the amount of liberated phosphate from ATP hydrolysis. The ATPase assay was performed in 96 well plates in a final reaction volume of 60 μL. 0.1–0.2 μg/well of DOC extracted SERCA membrane or the Na^+,K^+-ATPase was used, while 1–2.5 μg/well was used of the Pma1 membrane preparation. Reactions, including protein membrane preparation and various concentrations of exogenously added compounds, were conducted in the following buffers; Pma1 buffer: 17.5 mM MOPS-NaOH pH 7, 7 mM MgSO4, 44 mM KNO3 (vacuolar ATPase inhibitor), 22 mM NaN3 (mitochondrial ATPase inhibitor), 0.22 mM Na2MoO4 (acid phosphatase inhibitor); SERCA buffer: 9 mM MOPS-NaOH pH 7, 2.7 mM MgCl2, 0.1 mM CaCl2 and 72 mM KCl. Na^+,K^+-ATPase buffer: 30 mM MOPS-NaOH pH 7, 40 mM NaCl, 4 mM MgCl2 and 20 mM KCl. Reactions were initiated by the addition of Na-ATP to a final concentration of 2.5 mM (Pma1 and Na^+,K^+-ATPase) or 5 mM (SERCA), followed by 30 minutes incubation at 30°C. […] Absorption was measured at 860 nm after additional 30 minutes incubation at RT.

[3] abbreviates: ATP hydrolysis IC50 Saccharomyces cerevisiae Pma1, racemic compounds, n = 3.
Setting [4] is: Pma1 IC50, Pma1 species not specified.

Molecules are shown by their SMILES. ≈ marks a conversion by molar mass, not a printed value. Where “and” joins values, the source holds several entries; their conditions need not be identical. Equal entries are not always repeated. Entries after “also recorded” stand apart in the source; their conditions may differ.

As for `NC1CCCc2c1[nH]c1cc(OC(F)(F)F)ccc21` (stereo not shown) [Compound 4], the values for the minimum inhibitory concentration (MIC) (in test [1]; in the test on Candida albicans SC5314) were 23.7 µM (≈ 6.41 µg/mL) and 100 ± 43 µM (≈ 27 µg/mL), respectively. In addition, the EC50 with HepG2 cells was 3.5 ± 1.87 µM. The “Fungal growth inhibition versus HepG2 proliferation (in words)” value with HepG2 cells was “more potent at inhibiting HepG2 proliferation than fungal growth”. In test [2] (setting [3]), the IC50 stood at 75 ± 3.2 µM. Besides, the “Pma1 inhibition (in words)” value in test [2] is listed as “weak inhibitors of Pma1”.

Molecule `CN1CCC(NC2CCCc3c2[nH]c2cc(OC(F)(F)F)ccc32)CC1` (stereo not shown) [Compound 5] yielded an MIC in test [1] of 46.5 ± 27 µM (≈ 17.1 µg/mL). In the test with HepG2 cells, a half-maximal effect (EC50) was put at 4.7 ± 3.4 µM and the “Fungal growth inhibition versus HepG2 proliferation (in words)” value is on record as “more potent at inhibiting HepG2 proliferation than fungal growth”. This molecule registered a minimal inhibitory concentration (MIC) in the test on Candida albicans SC5314 of 150 µM (≈ 55.1 µg/mL). The molecule also returned an IC50 in test [2] (setting [3]) of 85.9 ± 10.3 µM. Also, the “Pma1 inhibition (in words)” value in test [2] is on record as “weak inhibitors of Pma1”.

In turn, `FC(F)(F)Oc1ccc2c3c([nH]c2c1)C(NCc1ccc(Cl)cc1)CCC3` (stereo not shown) [Compound 6] displayed a minimal inhibitory concentration (MIC) in test [1] of 12.1 ± 7.9 µM (≈ 4.78 µg/mL). Also, in the test with HepG2 cells, the concentration for a half-maximal effect (EC50) is 16.7 ± 3.54 µM and the “Fungal growth inhibition versus HepG2 proliferation (in words)” value is recorded as “inhibited fungal growth more strongly than HepG2 proliferation”. The molecule also had a minimum inhibitory concentration (MIC) against Candida albicans SC5314 of 7.5 µM (≈ 2.96 µg/mL). This molecule also yielded an IC50 in test [2] (setting [3]) of 2.79 ± 0.36 µM. In addition, the “Selectivity among P-type ATPases (in words)” value in test [2] is “more potent in inhibiting SERCA and the Na^+,K^+-ATPase than Pma1”.

Turning to `FC(F)(F)Oc1ccc2c3c([nH]c2c1)C(NCc1ccc(Br)cc1)CCC3` (stereo not shown) [Compound 7], the minimal inhibitory concentration (MIC) (in test [1]; in the test with Candida albicans SC5314) was 15 µM (≈ 6.59 µg/mL) throughout. This molecule also displayed an EC50 in the test with HepG2 cells of 14.9 ± 0.26 µM. In test [2] (setting [3]), this molecule registered a 50% inhibitory concentration (IC50) of 2.43 ± 0.39 µM. Further, in test [2], the “Selectivity among P-type ATPases (in words)” value was “more potent in inhibiting SERCA and the Na^+,K^+-ATPase than Pma1”.

As for `FC(F)(F)Oc1ccc2c3c([nH]c2c1)C(NCCOc1ccc(Cl)cc1)CCC3` (stereo not shown) [Compound 8], the MIC in test [1] was 5.3 ± 2.7 µM (≈ 2.25 µg/mL). In addition, in the test on HepG2 cells, the EC50 was 13.6 ± 1.33 µM and the “Fungal growth inhibition versus HepG2 proliferation (in words)” value is recorded as “inhibited fungal growth more strongly than HepG2 proliferation”. Moreover, the minimum inhibitory concentration (MIC) against Candida albicans SC5314 worked out at 7.5 µM (≈ 3.19 µg/mL). In test [2] (setting [3]), this molecule came in with an IC50 of 3.57 ± 1.81 µM. Besides, the “Selectivity among P-type ATPases (in words)” value in test [2] was “more potent in inhibiting SERCA and the Na^+,K^+-ATPase than Pma1”.

`FC(F)(F)Oc1ccc2[nH]c3c(c2c1)CCCC3NCc1ccc(-c2ccccn2)cc1` (stereo not shown) [Compound 9]: the minimum inhibitory concentration (MIC) (in test [1]; in the test on Candida albicans SC5314) was 7.5 µM (≈ 3.28 µg/mL) throughout. The molecule further gave a half-maximal effective concentration (EC50) in the test with HepG2 cells of 12.5 ± 3.68 µM. The “Fungal growth inhibition versus HepG2 proliferation (in words)” value in the test on HepG2 cells is recorded as “inhibited fungal growth more strongly than HepG2 proliferation”. Further, the half-inhibitory concentration (IC50) in test [2] (setting [3]) was 4.73 ± 2.23 µM; in test [2] (setting [4]), 5 to 7 µM.

For the molecule `Clc1ccc2[nH]c3c(c2c1)CCCC3NCc1ccc(-c2ccccc2)cc1` (stereo not shown) [Compound 10], the minimal inhibitory concentration (MIC) in test [1] came to 21 ± 6.6 µM (≈ 8.13 µg/mL); in the test on Candida albicans SC5314, 6.8 ± 4.6 µM (≈ 2.63 µg/mL). The same molecule registered a concentration giving a half-maximal response (EC50) with HepG2 cells of 18.6 ± 1.12 µM. Also, the “Fungal growth inhibition versus HepG2 proliferation (in words)” value in the test on HepG2 cells is listed as “inhibited fungal growth more strongly than HepG2 proliferation”. The 50% inhibitory concentration (IC50) was 7 µM and 6.69 µM in test [2] (setting [3]); 5 to 7 µM in test [2] (setting [4]).

For `Cn1c2c(c3cc(Cl)ccc31)CCCC2NCc1ccc(-c2ccccc2)cc1` (stereo not shown) [Compound 11], the MIC (in test [1]; against Candida albicans SC5314) was over 20 µM in each case. The same molecule returned a half-maximal effective concentration (EC50) in the test on HepG2 cells of over 20 µM. The same molecule came in with an IC50 in test [2] (setting [3]) of over 20 µM. Moreover, the “Pma1 inhibition (in words)” value in test [2] is “no activity against Pma1; also recorded: no inhibitory effect on Pma1”.

For `CN(Cc1ccc(-c2ccccc2)cc1)C1CCCc2c1[nH]c1ccc(Cl)cc21` (stereo not shown) [Compound 12], the MIC in test [1] is over 20 µM. Further, the EC50 in the test on HepG2 cells was over 20 µM. The minimum inhibitory concentration (MIC) against Candida albicans SC5314 was over 20 µM. For the same molecule, the IC50 in test [2] (setting [3]) was over 20 µM. Moreover, in test [2], the “Pma1 inhibition (in words)” value is on record as “no activity against Pma1; also recorded: no inhibitory effect on Pma1” and the “Selectivity among P-type ATPases (in words)” value was “weakly selective for Na^+,K^+-ATPase only”.
